Laboratory results: the supplement of paper PMC10290057
Structures can show the parent of a compound that is named as a salt.

Columns and labels:
HCT116 [1] = assay: AC50 cell viability (CellTiter-Glo); higher = less potent; conditions: 48 h
HCT116 [2] = assay: efficacy (fitted maximal change in viability relative to DMSO control); higher = less cytotoxic (negative = loss of viability); conditions: 48 h
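Wherever AC50 cell viability (CellTiter-Glo) is given: HCT116 colorectal carcinoma cells screened at five concentrations per compound, luminescent viability scaled between DMSO wells and empty wells on each plate, curves fitted per compound.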
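Wherever efficacy (fitted maximal change in viability relative to DMSO control) is given: Luminescence-based viability readout, five doses per compound, normalized against on-plate DMSO and empty-well controls, followed by dose-response curve fitting for every drug.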

c1cc(Nc2cc(C3CC3)n[nH]2)nc(Nc2ccc3nc[nH]c3c2)n1 [APY29]
AC50 cell viability (HCT116 [1]): 0.235 µM | efficacy (HCT116 [2]): -66.4%

NCCCN([C@H](CC#C)C/1=N/C2=C(C=CC(=C2)Cl)C(=O)N1NC3=CC=CC=C3)C(=O)C4=CC=CC(=C4F)Cl [ARQ-621]
AC50 cell viability (HCT116 [1]): 0.468 µM | efficacy (HCT116 [2]): -102%

Cn1cnc2c(F)c(Nc3ccc(Br)cc3F)c(C(=O)NOCCO)cc21 [ARRY-162]
AC50 cell viability (HCT116 [1]): 0.468 µM | efficacy (HCT116 [2]): -60.8%

C[C@H](NC(=O)[C@@H]1C[C@@H](O)CN1C(=O)[C@@H](NC(=O)COCCCOCCNC(=O)C[C@@H]2\N=C(C3=CC=C(Cl)C=C3)/C4=C(SC(=C4C)C)[N]5C(=NN=C25)C)C(C)(C)C)C6=CC=C(C=C6)C7=C(C)N=CS7 [ARV-771]
AC50 cell viability (HCT116 [1]): 0.148 µM | efficacy (HCT116 [2]): -91%

CC1=C(C)C\2=C(S1)[N]3C(=NN=C3[C@H](CC(=O)NC4=CC=C(OCCOCCOCCOCCNC5=CC=CC6=C5C(=O)N(C7CCC(=O)NC7=O)C6=O)C=C4)\N=C2C8=CC=C(Cl)C=C8)C (stereo partly drawn) [ARV-825]
AC50 cell viability (HCT116 [1]): 0.263 µM | efficacy (HCT116 [2]): -73.3%

COc1cc(N2CCC(N3CCN(C)CC3)CC2)ccc1Nc1ncnc(Nc2ccccc2[S+](=O)([O-])C(C)C)n1 [ASP-3026]
AC50 cell viability (HCT116 [1]): 4.68 µM | efficacy (HCT116 [2]): -82.2%

C=CC(=O)Nc1ccc2ncnc(Nc3ccc(OCc4cccc(F)c4)c(Cl)c3)c2c1 [AST-1306]
AC50 cell viability (HCT116 [1]): 11.8 µM | efficacy (HCT116 [2]): -98.3%

O=C(NC1CCNCC1)c1n[nH]cc1NC(=O)c1c(Cl)cccc1Cl [AT-7519]
AC50 cell viability (HCT116 [1]): 0.235 µM | efficacy (HCT116 [2]): -65.1%

Clc1ccc(C2(c3ccc(-c4cn[nH]c4)cc3)CCNCC2)cc1 [AT-7867]
AC50 cell viability (HCT116 [1]): 18.6 µM | efficacy (HCT116 [2]): -87.4%

O=C(Nc1c[nH]nc1-c1nc2cc(CN3CCOCC3)ccc2[nH]1)NC1CC1 [AT-9283]
AC50 cell viability (HCT116 [1]): 0.417 µM | efficacy (HCT116 [2]): -62.5%

C=CC(=O)Nc1cc2c(Nc3ccc(F)c(Cl)c3)ncnc2cc1C#CC(C)(C)N1CCN(C)CC1 [AV-412]
AC50 cell viability (HCT116 [1]): 9.34 µM | efficacy (HCT116 [2]): -104%

CC[C@H](CC#N)OC(=O)N[C@@H](C)c1cccc(NC(=O)Nc2ccc(-c3cnco3)c(OC)c2)c1 [AVN944]
AC50 cell viability (HCT116 [1]): 0.332 µM | efficacy (HCT116 [2]): -72.8%

CC(C)Oc1cc(Nc2nc(N[C@@H](C)c3ccc(F)cn3)ncc2Cl)n[nH]1 [AZ-23]
AC50 cell viability (HCT116 [1]): 5.25 µM | efficacy (HCT116 [2]): -67.9%

CCCc1cc(C(=O)N[C@H](Cc2ccc(-c3cccc(OC(F)(F)F)c3)nc2)C(=O)N[C@@H]2CCNC2)sc1C [AZ-82]
AC50 cell viability (HCT116 [1]): 8.33 µM | efficacy (HCT116 [2]): -97.3%

COc1cc(N2CCN(C)CC2)ccc1Nc1nccc(-c2cn(C)c3cnccc23)n1 [AZ-191]
AC50 cell viability (HCT116 [1]): 18.6 µM | efficacy (HCT116 [2]): -88.4%

CN1\C=N/C2=CC=C(NC3=CC(=CC=C3C)NC(=O)C4=CC(=CC=C4)C(C)(C)C#N)C=C2C1=O [AZ-628]
AC50 cell viability (HCT116 [1]): 0.332 µM | efficacy (HCT116 [2]): -50.6%

Cc1cc(Nc2nc(N[C@@H](C)c3ccc(F)cc3)c(C#N)cc2F)n[nH]1 [AZ-960]
AC50 cell viability (HCT116 [1]): 5.9 µM | efficacy (HCT116 [2]): -100%

COc1cc(OC2CCN(C)CC2)ccc1Nc1ncc2c(n1)n(C1CCCC1)c(=O)n2C [AZ-3146]
AC50 cell viability (HCT116 [1]): 5.9 µM | efficacy (HCT116 [2]): -102%

O=C1N\N=C(\CC2=CC=CC(=C2)C(=O)N3CCN(CC3)C4=NC=CC=C4C#N)C5=CC=CC=C15 [AZ-9482]
AC50 cell viability (HCT116 [1]): 5.25 µM | efficacy (HCT116 [2]): -54.2%

NC(=O)Nc1cc(-c2ccc(CN3CCOCC3)cc2)sc1C(N)=O [AZ-TAK1 Inhibitor]
AC50 cell viability (HCT116 [1]): 5.25 µM | efficacy (HCT116 [2]): -71%

CN(C)CCCOc1ccc(-c2ccc3ncc4c(c3c2)n(C2CCOCC2)c(=O)n4C)cn1 [AZD-0156]
AC50 cell viability (HCT116 [1]): 7.23 µM | efficacy (HCT116 [2]): -86%

NC1CCCN(c2c(/C=C3\SC(=O)NC3=O)cccc2-c2ccccc2)C1 (stereo not drawn) [AZD-1208]
AC50 cell viability (HCT116 [1]): 23.5 µM | efficacy (HCT116 [2]): -67.1%

Cc1cc(Nc2nc(N[C@@H](C)c3ncc(F)cn3)ncc2Cl)n[nH]1 [AZD-1480]
AC50 cell viability (HCT116 [1]): 5.25 µM | efficacy (HCT116 [2]): -66.2%

C[C@H]1COCCN1c1cc(C2([S+](=O)([O-])C3CC3)CC2)nc(-c2ccc(NC(=S)NCCO)cc2)n1 [AZD-3147]
AC50 cell viability (HCT116 [1]): 7.42 µM | efficacy (HCT116 [2]): -113%

COc1cc(N2CCC(N)CC2)ccc1Nc1ncc(Cl)c(-c2c[nH]c3ccccc23)n1 [AZD-3463]
AC50 cell viability (HCT116 [1]): 5.9 µM | efficacy (HCT116 [2]): -137%

COc1cc(CCc2cc(NC(=O)c3ccc(N4C[C@@H](C)N[C@@H](C)C4)cc3)n[nH]2)cc(OC)c1 [AZD-4547]
AC50 cell viability (HCT116 [1]): 10.5 µM | efficacy (HCT116 [2]): -98.5%

COc1nnc2ccc(N3CCC(c4ccc(OCCN5CCN(C)C(=O)[C@H]5C)cc4)CC3)nn12 [AZD-5153 6-Hydroxy-2-naphthoic acid]
AC50 cell viability (HCT116 [1]): 0.0833 µM | efficacy (HCT116 [2]): -68.6%

NC1(C(=O)N[C@@H](CCO)c2ccc(Cl)cc2)CCN(c2ncnc3[nH]ccc23)CC1 [AZD-5363]
AC50 cell viability (HCT116 [1]): 11.8 µM | efficacy (HCT116 [2]): -83.1%

Cc1ncc(-c2ccnc(Nc3ccc([S+](C)(=O)[O-])cc3)n2)n1C(C)C [AZD-5438]
AC50 cell viability (HCT116 [1]): 0.525 µM | efficacy (HCT116 [2]): -62.2%

C[C@@H](NC1=CC=CC=C1C(O)=O)C/2=C/C(=C\N3C(=O)/C=C(\N=C23)N4CCOCC4)C [AZD-6482]
AC50 cell viability (HCT116 [1]): 10.5 µM | efficacy (HCT116 [2]): -52.7%

C[C@@H]1COCCN1c1cc(C2([S@+](C)(=N)[O-])CC2)nc(-c2ccnc3[nH]ccc23)n1 [AZD-6738]
AC50 cell viability (HCT116 [1]): 8.33 µM | efficacy (HCT116 [2]): -84.1%

CN(C)C(=O)c1ccc([S+](=O)([O-])c2ccc(NC(=O)[C@@](C)(O)C(F)(F)F)c(Cl)c2)cc1 [AZD-7545]
AC50 cell viability (HCT116 [1]): 5.9 µM | efficacy (HCT116 [2]): -33.1%

NC(=O)Nc1cc(-c2cccc(F)c2)sc1C(=O)N[C@H]1CCCNC1 [AZD-7762]
AC50 cell viability (HCT116 [1]): 0.833 µM | efficacy (HCT116 [2]): -101%

COc1ccc(-c2ccc3c(N4CCOC[C@@H]4C)nc(N4CCOC[C@@H]4C)nc3n2)cc1CO [AZD-8055]
AC50 cell viability (HCT116 [1]): 0.295 µM | efficacy (HCT116 [2]): -51.6%

C[C@@H](Nc1cc(F)cc(F)c1)c1cc(C(=O)N(C)C)cc2c(=O)cc(N3CCOCC3)oc12 [AZD-8186]
AC50 cell viability (HCT116 [1]): 10.5 µM | efficacy (HCT116 [2]): -78.7%

CN1C(=O)\C(=C/C(=C1/NC2=C(F)C=C(I)C=C2)C(=O)NOCCO)C [AZD-8330]
AC50 cell viability (HCT116 [1]): 0.00934 µM | efficacy (HCT116 [2]): -68.6%

CCN1CCN(Cc2ccc(Nc3ncc(F)c(-c4cc(F)c5nc(C)n(C(C)C)c5c4)n3)nc2)CC1 [Abemaciclib]
AC50 cell viability (HCT116 [1]): 4.17 µM | efficacy (HCT116 [2]): -109%

CN(C)Cc1c(C(=O)NCCOc2ccc(C(=O)NO)cc2)oc2ccccc12 [Abexinostat]
AC50 cell viability (HCT116 [1]): 0.263 µM | efficacy (HCT116 [2]): -91.9%

CC[C@@]1(O)C[C@H](O[C@H]2C[C@H](N(C)C)[C@H](O[C@H]3C[C@H](O)[C@H](O[C@H]4CCC(=O)[C@H](C)O4)[C@H](C)O3)[C@H](C)O2)c2c(cc3c(c2O)C(=O)c2c(O)cccc2C3=O)[C@H]1C(=O)OC [Aclarubicin]
AC50 cell viability (HCT116 [1]): 3.72 µM | efficacy (HCT116 [2]): -89.2%

C\C1=C(\[C@@H](OC2=C1C=CC(=C2)O)C3=CC=C(OCCN4CCCCC4)C=C3)C5=CC=C(O)C=C5 [Acolbifene]
AC50 cell viability (HCT116 [1]): 18.6 µM | efficacy (HCT116 [2]): -94.9%

CC(C)C1NC(=O)C(NC(=O)C2=C3\N=C\4/C(=C(C)\C(=O)\C(=C4C(=O)NC5C(C)OC(=O)C(C(C)C)N(C)C(=O)CN(C)C(=O)C6CCCN6C(=O)C(NC5=O)C(C)C)N)OC3=C(C)C=C2)C(C)OC(=O)C(C(C)C)N(C)C(=O)CN(C)C(=O)C7CCCN7C1=O (stereo not drawn) [Actinomycin D]
AC50 cell viability (HCT116 [1]): 0.00144 µM | efficacy (HCT116 [2]): -73.8%

CC(C)(C)C(=O)OCOP(=O)(COCCn1cnc2c(N)ncnc21)OCOC(=O)C(C)(C)C [Adefovir dipivoxil]
AC50 cell viability (HCT116 [1]): 3.32 µM | efficacy (HCT116 [2]): -55.3%

Cc1cc(O[C@@H](CCC(F)(F)F)c2ccc(C(=O)NCCC(=O)O)cc2)cc(C)c1-c1ccc(C(C)(C)C)cc1 [Adomeglivant]
AC50 cell viability (HCT116 [1]): 26.3 µM | efficacy (HCT116 [2]): -115%

CN(C)C/C=C/C(=O)Nc1cc2c(Nc3ccc(F)c(Cl)c3)ncnc2cc1O[C@H]1CCOC1 [Afatinib]
AC50 cell viability (HCT116 [1]): 4.68 µM | efficacy (HCT116 [2]): -100%

O=C(Nc1cccc(Br)c1)c1cccc([S+](=O)([O-])N2CCCCCC2)c1 [Ak-7]
AC50 cell viability (HCT116 [1]): 14.8 µM | efficacy (HCT116 [2]): -59.7%

CCC[S+]([O-])c1ccc2[nH]c(NC(=O)OC)nc2c1 (stereo not drawn) [Albendazole oxide]
AC50 cell viability (HCT116 [1]): 13.2 µM | efficacy (HCT116 [2]): -45.3%

COc1cccc2c1C(=O)c1c(O)c3c(c(O)c1C2=O)C[C@@](O)(/C(CO)=N/NC(=O)CCCCCN1C(=O)C=CC1=O)C[C@@H]3O[C@H]1C[C@H](N)[C@H](O)[C@H](C)O1 [Aldoxorubicin hydrochlorid]
AC50 cell viability (HCT116 [1]): 2.35 µM | efficacy (HCT116 [2]): -73.6%

COC1=CC=CC(=C1/C2=N/CC3=C(N=C(NC4=CC(=C(C=C4)C(O)=O)OC)N=C3)C5=CC=C(Cl)C=C25)F [Alisertib]
AC50 cell viability (HCT116 [1]): 0.417 µM | efficacy (HCT116 [2]): -41.5%

O=C1c2cccc(O)c2C(=O)c2c(O)cc(CO)cc21 [Aloe-emodin]
AC50 cell viability (HCT116 [1]): 11.8 µM | efficacy (HCT116 [2]): -47.2%

Cc1nc(NC(=O)N2CCC[C@H]2C(N)=O)sc1-c1ccnc(C(C)(C)C(F)(F)F)c1 [Alpelisib]
AC50 cell viability (HCT116 [1]): 14.8 µM | efficacy (HCT116 [2]): -64.3%

CO[C@H]1/C=C\C=C(\C)C(=O)NC2=CC(=O)C(NCCN(C)C)=C(C[C@@H](C)C[C@H](OC)[C@H](O)[C@@H](C)/C=C(/C)[C@@H]1OC(N)=O)C2=O [Alvespimycin hydrochloride]
AC50 cell viability (HCT116 [1]): 0.372 µM | efficacy (HCT116 [2]): -92.8%

CCN(CC)CCNC(=O)c1c(C)[nH]c(/C=C2/C(=O)Nc3ccc(-c4csc(-c5ccccc5)n4)cc32)c1C [Amcasertib]
AC50 cell viability (HCT116 [1]): 20.9 µM | efficacy (HCT116 [2]): -99.9%

CCCCc1oc2ccccc2c1C(=O)c1cc(I)c(OCCN(CC)CC)c(I)c1 [Amiodarone hydrochloride]
AC50 cell viability (HCT116 [1]): 23.5 µM | efficacy (HCT116 [2]): -71.8%

CCCCCCCOc1ccc(CCC(N)(CO)CO)cc1C(F)(F)F [Amiselimod hydrochloride]
AC50 cell viability (HCT116 [1]): 10.5 µM | efficacy (HCT116 [2]): -96.7%
